# Species on record: Rattus norvegicus
# Assay: Inhibition of rat microsomal SOAT assessed as reduction in cholesteryl oleate formation from oleoyl co-enzyme A at 10 uM pretreated for 15 mins followed by oleoyl co-enzyme A addition measured after 10 mins by HPTLC method relative to control
row,inhibition [%],Structure (SMILES)
1,44.9,CCc1cccc(CC)c1NC(=O)Nc1ccc(-c2nonc2-c2ccc(F)cc2)cc1
2,3.36,CCCCCCCCCCCCNc1ccc(-c2sc(NC(=O)NCCCC)nc2-c2ccc(OC)cc2)cc1
3,12.3,Cc1nc(-c2ccc(Cl)cc2)c(-c2ccc(NC(=O)NCCN3CCOCC3)cc2)s1
4,21.5,COc1ccc(-c2nc(C)sc2-c2ccc(NC(=O)NCCN3CCOCC3)cc2)cc1
5,5.23,CCCCNC(=O)Nc1nc(-c2ccc(C)cc2)c(-c2ccc(NC(C)=O)cc2)s1
6,12.6,Cc1nc(-c2ccc(Cl)cc2)c(-c2ccc(NC(=O)Nc3c(C(C)C)cccc3C(C)C)cc2)s1
7,6.88,Cc1nc(-c2ccc(Cl)cc2)c(-c2ccc(NC(=O)Nc3ccccc3)cc2)s1
8,16.8,Cc1nc(-c2ccc(F)cc2)c(-c2ccc(NC(=O)Nc3ccccc3)cc2)s1
9,1.03,CCc1cccc(CC)c1NC(=O)Nc1nc(-c2ccc(C)cc2)c(-c2ccc([N+](=O)[O-])cc2)s1
10,34.5,CCCCCCCCCCCCNC(=O)Nc1ccc(-c2sc(C)nc2-c2ccc(F)cc2)cc1
11,22.2,CCCCCCCNC(=O)Nc1ccc(-c2sc(C)nc2-c2ccc(OC)cc2)cc1
12,2.56,CCCCNC(=O)Nc1nc(-c2ccccc2)c(-c2ccccc2)s1
13,3.59,O=C(Nc1nc(-c2ccc(F)cc2)c(-c2ccc([N+](=O)[O-])cc2)s1)Nc1ccc(F)cc1F
14,1.52,CCc1cccc(CC)c1NC(=O)Nc1nc(-c2ccc(C)cc2)c(-c2ccc(Cl)cc2)s1
15,51.7,COc1ccc(-c2nc(NC(=O)Nc3ccc(F)cc3F)sc2-c2ccc(NC(C)C)cc2)cc1
16,15.4,CCCCNC(=O)Nc1nc(-c2ccc(F)cc2)c(-c2ccc(NC(C)=O)cc2)s1
17,22.3,COc1ccc(-c2nc(C)sc2-c2ccc(NC(=O)Nc3ccc(F)cc3F)cc2)cc1
18,26.6,Cc1ccc(-c2nc(C)sc2-c2ccc(NC(=O)Nc3ccc(F)cc3F)cc2)cc1
19,5.63,CCCCNC(=O)Nc1nc(-c2ccc(Cl)cc2)c(-c2ccc(NS(C)(=O)=O)cc2)s1
20,3.4,COc1ccc(-c2nc(NC(=O)Nc3ccc(F)cc3F)sc2-c2ccc([N+](=O)[O-])cc2)cc1
21,56.9,COc1ccc(-c2nc(NC(=O)Nc3ccccc3)sc2-c2ccc(Cl)cc2)cc1

row,inhibition [%],Structure (SMILES)
1,1.91,CCCCCCCCCCCCNC(=O)Nc1nc(-c2ccc(F)cc2)c(-c2ccc(Cl)cc2)s1
2,1.77,CCCCCCCCCCCCNc1ccc(-c2sc(NC(=O)Nc3ccc(F)cc3F)nc2-c2ccc(OC)cc2)cc1
3,32.7,CCCCNC(=O)Nc1nc(-c2ccc(C)cc2)c(-c2ccc(NS(C)(=O)=O)cc2)s1
4,3.03,O=C(Nc1nc(-c2ccccc2)c(-c2ccccc2)s1)Nc1ccc(F)cc1F
5,0.34,CCc1cccc(CC)c1NC(=O)Nc1ccc(-c2nonc2-c2ccc(C)cc2)cc1
6,39.5,CCCCNC(=O)Nc1nc(-c2ccc(OC)cc2)c(-c2ccc(NC(C)=O)cc2)s1
7,3.3,CCCCNC(=O)Nc1nc(-c2ccc(F)cc2)c(-c2ccc(Cl)cc2)s1
8,21.2,O=C(Nc1ccc(-c2nonc2-c2ccc(Cl)cc2)cc1)Nc1ccc(F)cc1F
9,3.12,CCCCNC(=O)Nc1nc(-c2ccc(OC)cc2)c(-c2ccc([N+](=O)[O-])cc2)s1
10,1.3,Cc1nc(-c2ccc(Cl)cc2)c(-c2ccc(NC(=O)Nc3ccc(F)cc3F)cc2)s1
11,3.93,Cc1ccc(-c2nc(NC(=O)Nc3ccc(F)cc3F)sc2-c2ccc(Cl)cc2)cc1
12,8.25,CCc1cccc(CC)c1NC(=O)Nc1ccc(-c2nonc2-c2ccc(Cl)cc2)cc1
13,2.83,CCCCNC(=O)Nc1ccc(-c2nonc2-c2ccc(C)cc2)cc1
14,21.9,COc1cc(NC(=O)Nc2ccc(-c3sc(C)nc3-c3ccc(C)cc3)cc2)cc(OC)c1OC
15,27.6,CCCCNC(=O)Nc1nc(-c2ccc(OC)cc2)c(-c2ccc(Cl)cc2)s1
16,18.6,CCCCCCCNC(=O)Nc1ccc(-c2nonc2-c2ccc(C)cc2)cc1
17,3.28,O=C(Nc1nc(-c2ccc(Cl)cc2)c(-c2ccc([N+](=O)[O-])cc2)s1)Nc1ccc(F)cc1F
18,6.39,CS(=O)(=O)Nc1ccc(-c2sc(NC(=O)Nc3ccc(F)cc3F)nc2-c2ccc(Cl)cc2)cc1
19,39,COc1ccc(-c2nc(NC(=O)Nc3ccc(F)cc3F)sc2-c2ccc(NC(C)=O)cc2)cc1
20,59.9,CCCCNC(=O)Nc1ccc(-c2sc(C)nc2-c2ccc(F)cc2)cc1
21,13.4,Cc1ccc(-c2nc(C)sc2-c2ccc(NC(=O)Nc3ccccc3)cc2)cc1

row,inhibition [%],Structure (SMILES)
1,4.67,CCCCNC(=O)Nc1nc(-c2ccc(OC)cc2)c(-c2ccc(NC(C)C)cc2)s1
2,1.52,CCCCCCCNC(=O)Nc1nc(-c2ccc(OC)cc2)c(-c2ccc([N+](=O)[O-])cc2)s1
3,30.9,CCCCCCCNC(=O)Nc1ccc(-c2nonc2-c2ccc(F)cc2)cc1
4,33.4,CCCCCCCNC(=O)Nc1ccc(-c2sc(C)nc2-c2ccc(C)cc2)cc1
5,3.06,CC(=O)Nc1ccc(-c2sc(NC(=O)Nc3ccc(F)cc3F)nc2-c2ccc(C)cc2)cc1
6,2.03,CC(=O)Nc1ccc(-c2sc(NC(=O)Nc3ccc(F)cc3F)nc2-c2ccc(Cl)cc2)cc1
7,3.02,CCCCNC(=O)Nc1nc(-c2ccc(Cl)cc2)c(-c2ccc([N+](=O)[O-])cc2)s1
8,5.45,CCCCNC(=O)Nc1nc(-c2ccc(OC)cc2)c(-c2ccc(NS(C)(=O)=O)cc2)s1
9,2.98,CCCCNC(=O)Nc1nc(-c2ccc(F)cc2)c(-c2ccc([N+](=O)[O-])cc2)s1
10,19.6,COc1ccc(-c2nc(NC(=O)Nc3ccc(F)cc3F)sc2-c2ccc(NS(C)(=O)=O)cc2)cc1
11,18.9,CS(=O)(=O)Nc1ccc(-c2sc(NC(=O)Nc3ccc(F)cc3F)nc2-c2ccc(F)cc2)cc1
12,40,CCCCNC(=O)Nc1ccc(-c2sc(C)nc2-c2ccc(OC)cc2)cc1
13,30.1,COc1ccc(-c2nc(C)sc2-c2ccc(NC(=O)Nc3c(C(C)C)cccc3C(C)C)cc2)cc1
14,19,Cc1ccc(-c2nc(C)sc2-c2ccc(NC(=O)NCCN3CCOCC3)cc2)cc1
15,3.86,CCCCNC(=O)Nc1nc(-c2ccc(C)cc2)c(-c2ccc([N+](=O)[O-])cc2)s1
16,30.9,CCc1cccc(CC)c1NC(=O)Nc1ccc(-c2sc(C)nc2-c2ccc(C)cc2)cc1
17,10.6,O=C(Nc1ccccc1)Nc1nc(-c2ccccc2)c(-c2ccccc2)s1
18,42,COc1cc(NC(=O)Nc2ccc(-c3sc(C)nc3-c3ccc(F)cc3)cc2)cc(OC)c1OC
19,31.6,CCc1cccc(CC)c1NC(=O)Nc1ccc(-c2sc(C)nc2-c2ccc(OC)cc2)cc1
20,0.43,CCCCNC(=O)Nc1nc(-c2ccc(F)cc2)c(-c2ccc(NS(C)(=O)=O)cc2)s1
21,25.4,COc1ccc(-c2nc(C)sc2-c2ccc(NC(=O)Nc3cc(OC)c(OC)c(OC)c3)cc2)cc1

row,inhibition [%],Structure (SMILES)
1,11.4,COc1ccc(-c2nc(C)sc2-c2ccc(NC(=O)Nc3ccccc3)cc2)cc1
2,5.75,CCCCCCCCCCCCNC(=O)Nc1ccc(-c2sc(C)nc2-c2ccc(Cl)cc2)cc1
3,9.15,CCCCCCCCCCCCNC(=O)Nc1ccc(-c2nonc2-c2ccc(C)cc2)cc1
4,1.77,CCCCCCCCCCCCNC(=O)Nc1nc(-c2ccc(Cl)cc2)c(-c2ccc([N+](=O)[O-])cc2)s1
5,1.2,CCCCCCCCCCCCNC(=O)Nc1nc(-c2ccccc2)c(-c2ccccc2)s1
6,29.3,Cc1nc(-c2ccc(F)cc2)c(-c2ccc(NC(=O)NCCN3CCOCC3)cc2)s1
7,23.3,CC(=O)Nc1ccc(-c2sc(NC(=O)Nc3ccc(F)cc3F)nc2-c2ccc(F)cc2)cc1
8,11.2,Cc1ccc(-c2nc(C)sc2-c2ccc(NC(=O)Nc3c(C(C)C)cccc3C(C)C)cc2)cc1
9,27.5,CCCCCCCCCCCCNC(=O)Nc1ccc(-c2sc(C)nc2-c2ccc(OC)cc2)cc1
10,2.98,COc1ccc(-c2nc(NC(=O)Nc3ccc(F)cc3F)sc2-c2ccc(Cl)cc2)cc1
11,24.4,COc1cc(NC(=O)Nc2ccc(-c3sc(C)nc3-c3ccc(Cl)cc3)cc2)cc(OC)c1OC
12,1.58,CCc1cccc(CC)c1NC(=O)Nc1nc(-c2ccc(F)cc2)c(-c2ccc(Cl)cc2)s1
13,9.58,Cc1ccc(-c2nc(NC(=O)Nc3ccccc3)sc2-c2ccc(Cl)cc2)cc1
14,23,CCCCNC(=O)Nc1ccc(-c2nonc2-c2ccc(Cl)cc2)cc1
15,3.75,CCCCNC(=O)Nc1nc(-c2ccc(Cl)cc2)c(-c2ccc(NC(C)=O)cc2)s1
16,18.5,CCCCCCCCCCCCNC(=O)Nc1ccc(-c2nonc2-c2ccc(Cl)cc2)cc1
17,47.1,O=C(Nc1ccc(-c2nonc2-c2ccc(F)cc2)cc1)Nc1ccc(F)cc1F
18,4.3,CCCCCCCNC(=O)Nc1ccc(-c2nonc2-c2ccc(Cl)cc2)cc1
19,3.86,Cc1ccc(-c2nc(NC(=O)Nc3ccc(F)cc3F)sc2-c2ccc([N+](=O)[O-])cc2)cc1
20,2.17,Cc1ccc(-c2nc(NC(=O)Nc3ccc(F)cc3F)sc2-c2ccc(NS(C)(=O)=O)cc2)cc1

# Biological target: not listed separately
# Assay: Inhibition of rat microsomal SOAT assessed as reduction in cholesteryl oleate formation from oleoyl co-enzyme A pretreated for 15 mins followed by oleoyl co-enzyme A addition after 10 mins by HPTLC method
IC50 [µM],pIC50,Structure (SMILES)
9.73,5.011,CCc1cccc(CC)c1NC(=O)Nc1ccc(-c2nonc2-c2ccc(F)cc2)cc1
118,3.927,Cc1nc(-c2ccc(Cl)cc2)c(-c2ccc(NC(=O)NCCN3CCOCC3)cc2)s1
48.6,4.313,CCCCCCCCCCCCNC(=O)Nc1ccc(-c2sc(C)nc2-c2ccc(F)cc2)cc1
12.1,4.916,COc1ccc(-c2nc(NC(=O)Nc3ccc(F)cc3F)sc2-c2ccc(NC(C)C)cc2)cc1
10.7,4.972,COc1ccc(-c2nc(NC(=O)Nc3ccccc3)sc2-c2ccc(Cl)cc2)cc1
41.3,4.384,CCCCNC(=O)Nc1nc(-c2ccc(OC)cc2)c(-c2ccc(NC(C)=O)cc2)s1
62.9,4.2014,CCCCNC(=O)Nc1nc(-c2ccc(OC)cc2)c(-c2ccc(Cl)cc2)s1
31.9,4.496,COc1ccc(-c2nc(NC(=O)Nc3ccc(F)cc3F)sc2-c2ccc(NC(C)=O)cc2)cc1
9.58,5.0186,CCCCNC(=O)Nc1ccc(-c2sc(C)nc2-c2ccc(F)cc2)cc1
19,4.721,COc1ccc(-c2nc(NC(=O)Nc3ccc(F)cc3F)sc2-c2ccc(NS(C)(=O)=O)cc2)cc1
30.9,4.412,CCc1cccc(CC)c1NC(=O)Nc1ccc(-c2sc(C)nc2-c2ccc(C)cc2)cc1
17.7,4.7512,O=C(Nc1ccccc1)Nc1nc(-c2ccccc2)c(-c2ccccc2)s1
12.6,4.898,COc1cc(NC(=O)Nc2ccc(-c3sc(C)nc3-c3ccc(F)cc3)cc2)cc(OC)c1OC
43.6,4.3606,CCc1cccc(CC)c1NC(=O)Nc1ccc(-c2sc(C)nc2-c2ccc(OC)cc2)cc1
94.8,4.0233,COc1ccc(-c2nc(C)sc2-c2ccc(NC(=O)Nc3ccccc3)cc2)cc1
123,3.909,CCCCCCCCCCCCNC(=O)Nc1ccc(-c2nonc2-c2ccc(C)cc2)cc1
103,3.9863,CCc1cccc(CC)c1NC(=O)Nc1nc(-c2ccc(C)cc2)c(-c2ccc(N)cc2)s1

# From ChEMBL document CHEMBL4049391, “Vicinal diaryl azole-based urea derivatives as potential cholesterol lowering agents acting through inhibition of SOAT enzymes” (Eur J Med Chem, 2017)
